Data published in patent US5889029A, “Use of cotinine in treating psychiatric disorders” (priority 1997, dated 1999).

Columns and labels:
[1] = molecular target: T1, GABA uptake site (Rattus norvegicus, UniProt P23978); assay: biochemical; conditions: read-out: Receptor Binding Activity Percent Inhibition Average (N = 2)
T1 construct: Rat cortical membranes; from tissue; host or cells: rat cortical membranes

[2] = test system: Serotonin (Non-Selective); assay: Serotonin (Non-Selective) Binding Assay; conditions: 10^-6 M; Rat cortical membranes; [3H]Lysergic acid diethylamide 5.0 nM
[3] = molecular target: T2, dopamine uptake site (Cavia porcellus, UniProt H0WCX4); assay: Dopamine Reuptake Binding Assay; conditions: 10^-6 M; Guinea pig striatal membranes; [3H]WIN,35,428 1.0 nM
T2 construct: Guinea pig striatal membranes; from tissue; host or cells: guinea pig striatal membranes

[4] = molecular target: T3, Serotonin (5HT1A) (Bos taurus, UniProt F6Q2H9); assay: Serotonin (5HT1A) Binding Assay; parameters: species or system Bovine; conditions: 10^-6 M; Bovine hippocampal membranes; [3H]-8-OH-DPAT 1.0 nM; read-out: Receptor Binding Activity Percent Inhibition Average (N = 2)
T3 construct: Bovine hippocampal membranes; from tissue; host or cells: bovine hippocampal membranes
T3 sequence (F6Q2H9 1-422): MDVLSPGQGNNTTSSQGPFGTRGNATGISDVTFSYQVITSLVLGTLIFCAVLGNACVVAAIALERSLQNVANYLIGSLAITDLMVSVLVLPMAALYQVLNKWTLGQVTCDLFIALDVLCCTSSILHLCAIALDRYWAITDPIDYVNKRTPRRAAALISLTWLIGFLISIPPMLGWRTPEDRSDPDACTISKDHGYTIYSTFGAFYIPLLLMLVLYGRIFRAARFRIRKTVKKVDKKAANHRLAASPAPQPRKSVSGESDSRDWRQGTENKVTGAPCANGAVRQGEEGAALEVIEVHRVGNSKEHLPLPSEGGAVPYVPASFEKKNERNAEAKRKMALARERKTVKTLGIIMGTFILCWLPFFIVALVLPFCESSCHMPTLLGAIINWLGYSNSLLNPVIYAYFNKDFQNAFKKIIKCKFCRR

[5] = test system: Glutamic Acid Decarboxylase (GAD); assay: Glutamic Acid Decarboxylase (GAD) Enzyme Assay; assay type: biochemical; conditions: 10^-8 M; Rat corpus striatal membranes; [14C]L-Glutamic acid
Description: Radioimmunoassay studies were conducted with rat corpus striatal membranes using the following method.
Glutamic Acid Decarboxylase (GAD) Enzyme Assay
Rat corpus striatal membranes
Substrate: [^14 C]L-Glutamic acid (30-80 Ci/mmol)
Reactions are incubated in phosphate/mercapoethanol buffer
6.9) for 30 minutes at 37° C. The reaction is
stopped by the addition
of trichloroacetic acid and placement on ice. Radioactive
trapped in phenylethylamine/methanol and quantitated using
scintillation […] in order to ascertain any
of test compounds with the glutamic acid decarboxylase

[6] = molecular target: T4, Histamine (H2) (Cavia porcellus, UniProt P47747); assay: Histamine (H2) Binding Assay; parameters: species or system Guinea pig; conditions: 10^-6 M; Guinea pig striatal membranes; [3H]Tiotidine 4.0 nM; read-out: Receptor Binding Activity Percent Inhibition Average (N = 2)
T4 construct: Guinea pig striatal membranes; from tissue; host or cells: guinea pig striatal membranes

[7] = molecular target: T5, Histamine (H3) (Rattus norvegicus, UniProt Q9QYN8); assay: Histamine (H3) Binding Assay; conditions: 10^-6 M; Rat forebrain membranes; [3H]N^a-methylhistamine 0.2 nM; read-out: Receptor Binding Activity Percent Inhibition Average (N = 2)
T5 construct: Rat forebrain membranes; from tissue; host or cells: rat forebrain membranes

[8] = molecular target: T6, Opiate (Delta) (Rattus norvegicus, UniProt P33533); assay: Opiate (Delta) Binding Assay; conditions: read-out: Receptor Binding Activity Percent Inhibition Average (N = 2)
T6 construct: Rat forebrain membranes; from tissue; host or cells: rat forebrain membranes

[9] = molecular target: T7, Benzodiazepine (Peripheral) (Rattus norvegicus, UniProt P16257); assay: Benzodiazepine (Peripheral) Binding Assay; conditions: read-out: Receptor Binding Activity Percent Inhibition Average (N = 2)
T7 construct: Rat kidney membranes; from tissue; host or cells: rat kidney membranes

[10] = molecular target: T8, Inositol Triphosphate (IP3) (Rattus norvegicus, UniProt P29994); assay: Inositol Triphosphate (IP3) Binding Assay; conditions: 10^-6 M; Rat cerebellar membranes; [3H]IP3 4.0 nM; read-out: Receptor Binding Activity Percent Inhibition Average (N = 2)
T8 construct: Rat cerebellar membranes; from tissue; host or cells: rat cerebellar membranes
Description: Tissue cultures were prepared using standard laboratory practice for the following tissues: human recombinant M1 clone, human recombinant M2 clone, guinea pig striatal membranes, rat cortical membranes, rat striatal membranes, rat forebrain membranes, bovine hippocampal membranes, guinea pig cerebellar membranes, rat kidney membranes, recombinant rat 5HT7 clone, and rat cerebellar membranes.
Inositol Triphosphate (IP3) Binding Assay
Rat cerebellar membranes
Radioligand: [^3 H]IP3 (10-30 Ci/mmol)
Final ligand concentration - [4.0 nM]
D-myo-inositol 1,4,5-triphosphate
Reactions are carried out in 50 mM TRIS-HCl (pH 8.3)
1 mM EDTA at 0° C. for 10 minutes. The reaction is
rapid vacuum filtration onto glass fiber filters.
onto the filters is determined and compared to control
order to ascertain any interactions of test compound with
inositol triphospate binding site.

[11] = in the human; in vivo; cited from earlier work
[12] = molecular target: T9, Human recombinant M2 clone (Homo sapiens, UniProt P08172); assay: Muscarinic--M2 Clone Binding Assay; conditions: read-out: Receptor Binding Activity Percent Inhibition Average (N = 2)
T9 construct: expressed in transfected cells
T9 sequence (P08172 1-466): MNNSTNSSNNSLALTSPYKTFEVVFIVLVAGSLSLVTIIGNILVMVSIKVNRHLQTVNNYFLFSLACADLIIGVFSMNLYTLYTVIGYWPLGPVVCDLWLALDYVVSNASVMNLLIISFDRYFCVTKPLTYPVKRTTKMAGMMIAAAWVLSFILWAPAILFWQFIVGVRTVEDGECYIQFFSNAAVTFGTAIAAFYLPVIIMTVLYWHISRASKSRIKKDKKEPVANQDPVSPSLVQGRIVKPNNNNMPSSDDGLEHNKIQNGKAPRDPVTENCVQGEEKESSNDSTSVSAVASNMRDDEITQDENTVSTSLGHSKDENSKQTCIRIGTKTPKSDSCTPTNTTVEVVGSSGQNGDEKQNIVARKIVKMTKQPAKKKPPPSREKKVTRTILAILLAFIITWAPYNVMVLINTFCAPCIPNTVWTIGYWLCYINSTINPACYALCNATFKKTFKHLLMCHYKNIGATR

[13] = molecular target: Glycine (Strychnine Insensitive) (Rattus norvegicus, UniProt P35439); assay: biochemical; assay type: binding; conditions: read-out: Receptor Binding Activity Percent Inhibition Average (N = 2)
[14] = test system: glutamatergic transmission; conditions: application to CNS sites in vitro; cited from earlier work
[15] = molecular target: T10, recombinant Rat 5HT7 Clone (Rattus norvegicus, UniProt P32305); assay: Serotonin--5HT7 Clone Binding Assay; conditions: 10^-6 M, [3H]LSD 2.0 nM, read-out: Receptor Binding Activity Percent Inhibition Average (N = 2)
T10 construct: expressed in transfected cells

[16] = test system: Serotonin (5HT1); assay: Serotonin (5HT1) Binding Assay; conditions: 10^-6 M; Rat cortical membranes; [3H]Hydroxytryptamine binoxalate 3.0 nM
[17] = molecular target: T11, Dopamine (D1 Central) (Rattus norvegicus, UniProt P18901); assay: Dopamine (D1 Central) Binding Assay; conditions: 10^-6 M; Rat striatal membranes; [3H]SCH 23390 0.5 nM
T11 construct: Rat striatal membranes; from tissue; host or cells: rat striatal membranes

T6 sequence (P33533 whole entry): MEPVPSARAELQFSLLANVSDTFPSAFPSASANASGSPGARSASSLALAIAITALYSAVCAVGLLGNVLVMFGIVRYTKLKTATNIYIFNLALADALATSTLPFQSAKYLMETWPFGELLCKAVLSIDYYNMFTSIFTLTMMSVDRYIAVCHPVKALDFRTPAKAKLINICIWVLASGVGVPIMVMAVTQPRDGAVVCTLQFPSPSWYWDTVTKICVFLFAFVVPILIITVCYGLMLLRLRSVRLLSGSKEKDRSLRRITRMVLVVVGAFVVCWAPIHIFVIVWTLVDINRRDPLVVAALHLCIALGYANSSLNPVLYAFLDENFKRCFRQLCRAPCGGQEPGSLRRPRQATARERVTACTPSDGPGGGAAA
T8 sequence (P29994 whole entry): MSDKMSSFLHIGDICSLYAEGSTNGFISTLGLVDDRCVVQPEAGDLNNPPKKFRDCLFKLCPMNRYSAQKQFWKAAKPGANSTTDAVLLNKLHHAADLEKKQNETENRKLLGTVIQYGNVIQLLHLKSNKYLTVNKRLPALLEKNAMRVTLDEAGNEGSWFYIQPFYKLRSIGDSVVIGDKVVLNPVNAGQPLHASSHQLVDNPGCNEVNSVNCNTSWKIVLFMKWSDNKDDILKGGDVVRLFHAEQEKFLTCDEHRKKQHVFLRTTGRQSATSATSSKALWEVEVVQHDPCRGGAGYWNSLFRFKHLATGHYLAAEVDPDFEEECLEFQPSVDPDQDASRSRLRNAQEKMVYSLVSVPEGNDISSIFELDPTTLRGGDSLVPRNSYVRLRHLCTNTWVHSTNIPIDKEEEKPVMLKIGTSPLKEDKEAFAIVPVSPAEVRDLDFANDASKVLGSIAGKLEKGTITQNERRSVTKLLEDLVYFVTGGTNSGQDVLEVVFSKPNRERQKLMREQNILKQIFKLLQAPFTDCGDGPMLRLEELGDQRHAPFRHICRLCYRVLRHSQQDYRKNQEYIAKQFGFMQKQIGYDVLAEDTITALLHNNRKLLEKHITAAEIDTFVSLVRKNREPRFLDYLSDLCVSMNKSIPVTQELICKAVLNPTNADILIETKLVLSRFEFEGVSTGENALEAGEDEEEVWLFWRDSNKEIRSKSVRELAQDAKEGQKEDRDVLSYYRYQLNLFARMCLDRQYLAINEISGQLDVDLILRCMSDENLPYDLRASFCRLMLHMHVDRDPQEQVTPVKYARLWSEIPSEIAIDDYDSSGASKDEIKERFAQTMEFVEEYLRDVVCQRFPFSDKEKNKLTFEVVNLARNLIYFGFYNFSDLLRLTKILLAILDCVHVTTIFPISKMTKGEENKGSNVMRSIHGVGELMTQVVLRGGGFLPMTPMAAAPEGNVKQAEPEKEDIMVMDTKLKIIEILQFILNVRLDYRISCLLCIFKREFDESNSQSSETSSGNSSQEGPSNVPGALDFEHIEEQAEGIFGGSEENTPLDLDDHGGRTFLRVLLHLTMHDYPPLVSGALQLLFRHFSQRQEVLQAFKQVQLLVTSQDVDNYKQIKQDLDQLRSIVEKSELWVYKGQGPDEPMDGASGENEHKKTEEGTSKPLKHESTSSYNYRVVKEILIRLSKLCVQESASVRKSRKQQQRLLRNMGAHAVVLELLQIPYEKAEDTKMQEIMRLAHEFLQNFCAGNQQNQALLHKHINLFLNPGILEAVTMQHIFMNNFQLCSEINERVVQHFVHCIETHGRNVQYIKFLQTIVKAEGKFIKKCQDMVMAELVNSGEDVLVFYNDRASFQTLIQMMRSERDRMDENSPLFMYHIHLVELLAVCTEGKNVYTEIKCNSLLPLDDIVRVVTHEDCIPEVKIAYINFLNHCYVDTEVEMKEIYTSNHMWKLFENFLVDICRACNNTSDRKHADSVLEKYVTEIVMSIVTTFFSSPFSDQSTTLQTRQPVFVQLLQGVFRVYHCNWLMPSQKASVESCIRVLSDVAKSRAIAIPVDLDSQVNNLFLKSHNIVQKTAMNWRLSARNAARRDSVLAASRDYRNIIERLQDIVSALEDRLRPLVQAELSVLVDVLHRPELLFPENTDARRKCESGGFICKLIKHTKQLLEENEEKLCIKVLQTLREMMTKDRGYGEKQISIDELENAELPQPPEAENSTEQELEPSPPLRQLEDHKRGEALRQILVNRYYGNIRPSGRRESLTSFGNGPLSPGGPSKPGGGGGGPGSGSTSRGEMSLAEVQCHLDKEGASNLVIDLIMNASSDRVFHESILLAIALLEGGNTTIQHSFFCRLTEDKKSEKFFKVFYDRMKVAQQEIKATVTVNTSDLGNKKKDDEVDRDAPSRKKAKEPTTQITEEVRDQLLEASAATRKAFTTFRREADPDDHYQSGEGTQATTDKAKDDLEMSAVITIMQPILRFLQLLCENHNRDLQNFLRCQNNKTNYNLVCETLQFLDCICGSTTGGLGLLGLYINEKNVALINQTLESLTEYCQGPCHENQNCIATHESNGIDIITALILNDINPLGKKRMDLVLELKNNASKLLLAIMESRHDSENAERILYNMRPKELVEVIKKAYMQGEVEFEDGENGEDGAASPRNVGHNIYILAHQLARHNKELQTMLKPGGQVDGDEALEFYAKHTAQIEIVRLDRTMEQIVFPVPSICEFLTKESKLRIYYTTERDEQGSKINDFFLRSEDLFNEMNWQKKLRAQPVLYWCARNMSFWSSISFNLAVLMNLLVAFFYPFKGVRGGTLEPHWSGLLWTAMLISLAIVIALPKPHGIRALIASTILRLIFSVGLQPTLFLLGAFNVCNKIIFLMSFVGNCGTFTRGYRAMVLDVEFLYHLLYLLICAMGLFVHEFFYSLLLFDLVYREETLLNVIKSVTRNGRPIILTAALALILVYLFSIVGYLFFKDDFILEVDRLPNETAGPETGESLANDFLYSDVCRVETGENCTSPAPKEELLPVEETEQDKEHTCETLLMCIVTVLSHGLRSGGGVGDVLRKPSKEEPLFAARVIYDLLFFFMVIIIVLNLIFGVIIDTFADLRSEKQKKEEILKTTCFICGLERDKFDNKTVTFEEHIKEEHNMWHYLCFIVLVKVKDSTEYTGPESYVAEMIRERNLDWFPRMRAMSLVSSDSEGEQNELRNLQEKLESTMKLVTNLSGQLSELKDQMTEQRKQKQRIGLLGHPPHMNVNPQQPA
T2 sequence (H0WCX4 1-619): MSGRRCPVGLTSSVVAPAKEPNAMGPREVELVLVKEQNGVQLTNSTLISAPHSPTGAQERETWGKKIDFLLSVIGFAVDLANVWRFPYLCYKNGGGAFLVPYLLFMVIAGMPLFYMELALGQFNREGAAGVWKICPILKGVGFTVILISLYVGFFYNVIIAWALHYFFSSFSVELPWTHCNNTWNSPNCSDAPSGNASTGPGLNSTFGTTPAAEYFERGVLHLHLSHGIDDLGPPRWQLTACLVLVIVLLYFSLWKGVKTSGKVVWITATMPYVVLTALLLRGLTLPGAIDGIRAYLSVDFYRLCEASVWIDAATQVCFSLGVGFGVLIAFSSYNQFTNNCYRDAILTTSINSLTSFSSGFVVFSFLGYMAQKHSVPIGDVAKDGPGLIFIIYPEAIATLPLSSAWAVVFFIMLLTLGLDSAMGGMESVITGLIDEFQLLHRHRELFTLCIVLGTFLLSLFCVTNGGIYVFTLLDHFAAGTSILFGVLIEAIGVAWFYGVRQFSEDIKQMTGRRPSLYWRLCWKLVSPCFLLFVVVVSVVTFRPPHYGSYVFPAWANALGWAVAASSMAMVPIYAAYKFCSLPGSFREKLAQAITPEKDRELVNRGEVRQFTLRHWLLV
T10 sequence (P32305 whole entry): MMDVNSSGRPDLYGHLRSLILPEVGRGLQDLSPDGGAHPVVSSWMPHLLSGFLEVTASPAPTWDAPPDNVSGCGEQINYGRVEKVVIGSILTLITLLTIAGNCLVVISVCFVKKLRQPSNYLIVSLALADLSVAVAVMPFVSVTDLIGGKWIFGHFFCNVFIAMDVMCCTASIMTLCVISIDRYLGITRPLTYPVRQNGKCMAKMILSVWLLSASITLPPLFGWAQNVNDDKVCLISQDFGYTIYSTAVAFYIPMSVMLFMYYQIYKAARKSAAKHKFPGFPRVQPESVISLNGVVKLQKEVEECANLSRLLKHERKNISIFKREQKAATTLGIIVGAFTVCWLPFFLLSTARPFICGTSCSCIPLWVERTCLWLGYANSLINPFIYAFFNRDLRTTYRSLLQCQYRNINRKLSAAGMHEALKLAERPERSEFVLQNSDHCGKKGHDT
T7 sequence (P16257 whole entry): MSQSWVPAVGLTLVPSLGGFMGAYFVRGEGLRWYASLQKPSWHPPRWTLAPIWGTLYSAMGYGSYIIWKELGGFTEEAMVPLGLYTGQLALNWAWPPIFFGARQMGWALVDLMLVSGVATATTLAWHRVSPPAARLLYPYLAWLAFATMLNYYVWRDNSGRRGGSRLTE

SMILES: CN1CCCC1c1cccnc1 (centres unmarked) [Nicotine, reference compound]
- inhibition at 1 µM [1]: 12.1%
- Receptor Binding Activity Percent Inhibition Average (N = 2) [2]: 6.3%
- Receptor Binding Activity Percent Inhibition Average (N = 2) [3]: 9.2%
- inhibition at 1 µM [4]: 3.3%
- Percent Inhibition [5]: 40%
- inhibition at 1 µM [6]: 45.9%
- inhibition at 1 µM [7]: 13.5%
- inhibition at 1 µM [8]: 10.1%
- inhibition at 1 µM [9]: 3.1%
- inhibition at 1 µM [10]: 3.2%
- half-life [11]: one to two
- inhibition at 1 µM [12]: 4.4%
- inhibition at 1 µM [13]: 1.5%
- amplitude of the evoked currents [14]: more than doubled
- inhibition at 1 µM [15]: 8%
- Receptor Binding Activity Percent Inhibition Average (N = 2) [16]: -1.4%
- Receptor Binding Activity Percent Inhibition Average (N = 2) [17]: 2.6%
